Kd data for 24 compounds are collected here from US11319299B2, “Substituted carboxamides as inhibitors of WDR5 protein-protein binding” (PROPELLON THERAPEUTICS INC., priority 2016, dated 2022).

For this test, the target named is WDR5 (Homo sapiens (Human), UniProt P61964). Briefly: Surface Plasmon Resonance (SPR) assay, KD and residence time. It is filed as binding. The following applies: surface plasmon resonance (SPR) assay; read-out: WDR5 binding affinity (KD). (SPR reads the build-up and loss of mass on a sensor chip optically.)

Turning to `C[C@@H]1CN(c2cc(F)c(C3=CCN(C(=O)C(C)(C)C)CC3)cc2NC(=O)c2c[nH]c(=O)cc2C(F)(F)F)C[C@H](C)N1C` [Example 243, N-[5-[1-(2,2-dimethylpropanoyl)-3,6-dihydro-2H-pyridin-4-yl]-4-fluoro-2-[(3R,5S)-3,4,5-trimethylpiperazin-1-yl]phenyl]-6-oxo-4-(trifluoromethyl)-1H-pyridine-3-carboxamide], the Kd (as a rule, the concentration at which binding is half-saturated) came out at 2.16 nM.
On to `C[C@@H]1CN(c2cc(F)c(C3CCN(C(=O)C(C)(C)C)CC3)cc2NC(=O)c2c[nH]c(=O)cc2C(F)(F)F)C[C@H](C)N1C` [Example 244, N-[5-[1-(2,2-dimethylpropanoyl)piperidin-4-yl]-4-fluoro-2-[(3R,5S)-3,4,5-trimethylpiperazin-1-yl]phenyl]-6-oxo-4-(trifluoromethyl)-1H-pyridine-3-carboxamide], for which the Kd was 1.97 nM.
For `C[C@@H]1CN(c2ncc(-c3cc(NC(=O)c4cn(C)c(=O)cc4C(F)(F)F)c(N4C[C@@H](C)N(C)[C@@H](C)C4)cc3F)cn2)C[C@H](C)O1` [Example 246, N-[4-fluoro-5-[2-[(2R,6S)-2,6-dimethylmorpholin-4-yl]pyrimidin-5-yl]-2-[(3S,5R)-3,4,5-trimethylpiperazin-1-yl]phenyl]-1-methyl-6-oxo-4-(trifluoromethyl)pyridine-3-carboxamide] the value was 2.51 nM.
In the case of `C[C@@H]1CN(c2cc(F)c(C3=CCN(S(C)(=O)=O)C3)cc2NC(=O)c2c[nH]c(=O)cc2C(F)(F)F)C[C@H](C)N1C` [Example 249, N-[4-fluoro-5-(1-methylsulfonyl-2,5-dihydropyrrol-3-yl)-2-[(3R,5S)-3,4,5-trimethylpiperazin-1-yl]phenyl]-6-oxo-4-(trifluoromethyl)-1H-pyridine-3-carboxamide], the Kd came out at 0.665 nM.
For `C[C@@H]1CN(c2cc(F)c(-c3ccc(OCC4CC4)nc3)cc2NC(=O)c2cc(Cl)cc(Cl)c2)C[C@H](C)N1C` [Example 250, 3,5-dichloro-N-[5-[6-(cyclopropylmethoxy)pyridin-3-yl]-4-fluoro-2-[(3R,5S)-3,4,5-trimethylpiperazin-1-yl]phenyl]benzamide] the value was 76.9 nM.
As for `C[C@@H]1CN(c2cc(F)c(-c3ccc(OCC4CC4)nc3)cc2NC(=O)c2ccc(F)cc2Cl)C[C@H](C)N1C` [Example 251, 2-chloro-N-[5-[6-(cyclopropylmethoxy)pyridin-3-yl]-4-fluoro-2-[(3R,5S)-3,4,5-trimethylpiperazin-1-yl]phenyl]-4-fluorobenzamide], the figure is 15.6 nM.
For `CC(=O)N1CC=C(c2cc(NC(=O)c3c[nH]c(=O)cc3C(F)(F)F)c(N3C[C@@H](C)N(C)[C@@H](C)C3)cc2F)CC1` [Example 252, N-[5-(1-acetyl-3,6-dihydro-2H-pyridin-4-yl)-4-fluoro-2-[(3R,5S)-3,4,5-trimethylpiperazin-1-yl]phenyl]-6-oxo-4-(trifluoromethyl)-H-pyridine-3-carboxamide], the Kd was found to be 2.79 nM.
As for `CCOC(=O)N1CC=C(c2cc(NC(=O)c3c[nH]c(=O)cc3C(F)(F)F)c(N3C[C@@H](C)N(C)[C@@H](C)C3)cc2F)CC1` [Example 253, ethyl 4-[2-fluoro-5-[[6-oxo-4-(trifluoromethyl)-1H-pyridine-3-carbonyl]amino]-4-[(3R,5S)-3,4,5-trimethylpiperazin-1-yl]phenyl]-3,6-dihydro-2H-pyridine-1-carboxylate], the Kd is 3.3 nM.
As for `CC(C)COC(=O)N1CC=C(c2cc(NC(=O)c3c[nH]c(=O)cc3C(F)(F)F)c(N3C[C@@H](C)N(C)[C@@H](C)C3)cc2F)CC1` [Example 254, 2-methylpropyl 4-[2-fluoro-5-[[6-oxo-4-(trifluoromethyl)-1H-pyridine-3-carbonyl]amino]-4-[(3R,5S)-3,4,5-trimethylpiperazin-1-yl]phenyl]-3,6-dihydro-2H-pyridine-1-carboxylate], the Kd came out at 3.34 nM.
For `C[C@@H]1CN(c2cc(F)c(C3=CCN(C(=O)CC(C)(C)C)CC3)cc2NC(=O)c2c[nH]c(=O)cc2C(F)(F)F)C[C@H](C)N1C` [Example 255, N-[5-[1-(3,3-dimethylbutanoyl)-3,6-dihydro-2H-pyridin-4-yl]-4-fluoro-2-[(3R,5S)-3,4,5-trimethylpiperazin-1-yl]phenyl]-6-oxo-4-(trifluoromethyl)-1H-pyridine-3-carboxamide] the value was 1.98 nM.
Turning to `C[C@@H]1CN(c2cc(F)c(C3CCN(C(=O)CC(C)(C)C)CC3)cc2NC(=O)c2c[nH]c(=O)cc2C(F)(F)F)C[C@H](C)N1C` [Example 256, N-[5-[1-(3,3-dimethylbutanoyl)piperidin-4-yl]-4-fluoro-2-[(3R,5S)-3,4,5-trimethylpiperazin-1-yl]phenyl]-6-oxo-4-(trifluoromethyl)-1H-pyridine-3-carboxamide], the Kd worked out at 11.8 nM.
On to `C[C@@H]1CN(c2cc(F)c(-c3ccc(F)nc3)cc2NC(=O)c2c[nH]c(=O)cc2C(F)(F)F)C[C@H](C)N1C` [Example 257, N-[4-fluoro-5-(6-fluoropyridin-3-yl)-2-[(3R,5S)-3,4,5-trimethylpiperazin-1-yl]phenyl]-6-oxo-4-(trifluoromethyl)-1H-pyridine-3-carboxamide], for which the Kd worked out at 1.7 nM.
`CN(C)C1CCN(c2cc(F)c(-c3cnc(N4CCOCC4)nc3)cc2NC(=O)c2c[nH]c(=O)cc2C(F)(F)F)CC1` [Example 258, N-[2-[4-(dimethylamino)piperidin-1-yl]-4-fluoro-5-(2-morpholin-4-ylpyrimidin-5-yl)phenyl]-6-oxo-4-(trifluoromethyl)-1H-pyridine-3-carboxamide]: the dissociation constant (Kd) came to 66.1 nM.
As to `C[C@@H]1CN(c2cc(F)c(-c3ccc(N4CCCC4)nc3)cc2NC(=O)c2c[nH]c(=O)cc2C(F)(F)F)C[C@H](C)N1C` [Example 261, N-[4-fluoro-5-(6-pyrrolidin-1-ylpyridin-3-yl)-2-[(3R,5S)-3,4,5-trimethylpiperazin-1-yl]phenyl]-6-oxo-4-(trifluoromethyl)-1H-pyridine-3-carboxamide], the Kd worked out at 1.64 nM.
As for `COc1cc(Cl)cc(C(=O)Nc2cc(-c3cnc(N4CCOCC4)nc3)c(F)cc2N2C[C@@H](C)N(C)[C@@H](C)C2)c1` [Example 265, 3-chloro-N-[4-fluoro-5-(2-morpholin-4-ylpyrimidin-5-yl)-2-[(3R,5S)-3,4,5-trimethylpiperazin-1-yl]phenyl]-5-methoxybenzamide], the figure is 28.3 nM; as for `C[C@@H]1CN(c2cc(F)c(-c3cnc(N4CCOCC4)nc3)cc2NC(=O)c2ccc(F)c(Cl)c2F)C[C@H](C)N1C` [Example 266, 3-chloro-2,4-difluoro-N-[4-fluoro-5-(2-morpholin-4-ylpyrimidin-5-yl)-2-[(3R,5S)-3,4,5-trimethylpiperazin-1-yl]phenyl]benzamide], 13.7 nM; as for `C[C@@H]1CN(c2cc(F)c(C3=CCN(C)CC3)cc2NC(=O)c2c[nH]c(=O)cc2C(F)(F)F)C[C@H](C)N1C` [Example 267, N-[4-fluoro-5-(1-methyl-3,6-dihydro-2H-pyridin-4-yl)-2-[(3R,5S)-3,4,5-trimethylpiperazin-1-yl]phenyl]-6-oxo-4-(trifluoromethyl)-1H-pyridine-3-carboxamide], 10.7 nM.
`Cc1cc(C#N)ncc1-c1cc(NC(=O)c2c[nH]c(=O)cc2C(F)(F)F)c(N2C[C@@H](C)N(C)[C@@H](C)C2)cc1F` [Example 269, N-[5-(6-cyano-4-methylpyridin-3-yl)-4-fluoro-2-[(3R,5S)-3,4,5-trimethylpiperazin-1-yl]phenyl]-6-oxo-4-(trifluoromethyl)-1H-pyridine-3-carboxamide]: the Kd was found to be 8.74 nM.
For `C[C@@H]1CN(c2cc(F)c(C3=CCN(c4ccccn4)CC3)cc2NC(=O)c2c[nH]c(=O)cc2C(F)(F)F)C[C@H](C)N1C` [Example 270, N-[4-fluoro-5-(1-pyridin-2-yl-3,6-dihydro-2H-pyridin-4-yl)-2-[(3R,5S)-3,4,5-trimethylpiperazin-1-yl]phenyl]-6-oxo-4-(trifluoromethyl)-1H-pyridine-3-carboxamide], the Kd was determined as 0.938 nM.
With `Cc1cnc(N2CC=C(c3cc(NC(=O)c4c[nH]c(=O)cc4C(F)(F)F)c(N4C[C@@H](C)N(C)[C@@H](C)C4)cc3F)CC2)nc1` [Example 271, N-[4-fluoro-5-[1-(5-methylpyrimidin-2-yl)-3,6-dihydro-2H-pyridin-4-yl]-2-[(3R,5S)-3,4,5-trimethylpiperazin-1-yl]phenyl]-6-oxo-4-(trifluoromethyl)-1H-pyridine-3-carboxamide], the Kd is 0.499 nM.
Turning to `C[C@@H]1CN(c2ccc(-c3cc(NC(=O)c4c[nH]c(=O)cc4C(F)(F)F)c(N4C[C@@H](C)N(C)[C@@H](C)C4)cc3F)cn2)C[C@H](C)O1` [Example 272, N-[4-fluoro-5-[6-[(2R,6S)-2,6-dimethylmorpholin-4-yl]pyridin-3-yl]-2-[(3S,5R)-3,4,5-trimethylpiperazin-1-yl]phenyl]-6-oxo-4-(trifluoromethyl)-1H-pyridine-3-carboxamide], the Kd is 0.532 nM.
Take `C[C@@H]1CN(c2cc(F)c(C3=CCN(c4ncc(Cl)cn4)CC3)cc2NC(=O)c2c[nH]c(=O)cc2C(F)(F)F)C[C@H](C)N1C` [Example 275, N-[5-[1-(5-chloropyrimidin-2-yl)-3,6-dihydro-2H-pyridin-4-yl]-4-fluoro-2-[(3R,5S)-3,4,5-trimethylpiperazin-1-yl]phenyl]-6-oxo-4-(trifluoromethyl)-1H-pyridine-3-carboxamide]: the Kd is 1.54 nM.
With `CCOC(=O)c1ccnc(N2CC=C(c3cc(NC(=O)c4c[nH]c(=O)cc4C(F)(F)F)c(N4C[C@@H](C)N(C)[C@@H](C)C4)cc3F)CC2)n1` [Example 276, ethyl 2-[4-[2-fluoro-5-[[6-oxo-4-(trifluoromethyl)-1H-pyridine-3-carbonyl]amino]-4-[(3R,5S)-3,4,5-trimethylpiperazin-1-yl]phenyl]-3,6-dihydro-2H-pyridin-1-yl]pyrimidine-4-carboxylate], the equilibrium dissociation constant (Kd) was 1.67 nM.
For `CNC1CCN(c2cc(F)c(-c3cnc(N4CCOCC4)nc3)cc2NC(=O)c2c[nH]c(=O)cc2C(F)(F)F)C1` (stereo not drawn) [Example 277, N-[4-fluoro-2-[3-(methylamino)pyrrolidin-1-yl]-5-(2-morpholin-4-ylpyrimidin-5-yl)phenyl]-6-oxo-4-(trifluoromethyl)-1H-pyridine-3-carboxamide] the value was 14.9 nM.
